Test [1] addresses T1, human sphingosine-1-phosphate receptor 1 (S1P1) (Homo sapiens, UniProt P21453). The experiment in a line: Inhibition of cAMP production (HTRF cAMP HiRange), S1P1 CHO-K1 cells. Type of test: cell-based. Particulars: for Emax: CHO-K1, efficacy normalized to maximum efficacy of fingolimod, read-out: hS1P1 CAMP SPAN; for EC50: read-out: hS1P1 CAMP pEC50 (converted). An outline of the steps: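 Intracellular cAMP changes read by TR-FRET (HTRF HiRange, 1 h room temperature) after 30 min compound exposure at 37 °C. Cells: overnight-plated CHO-K1 stably expressing tagged human S1P1 with EA-β-arrestin2. Responses normalized to fingolimod.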
In general terms: Changes in cAMP serve as a functional read-out for many G protein-coupled receptors.
Target sequence in this assay (P21453 whole entry): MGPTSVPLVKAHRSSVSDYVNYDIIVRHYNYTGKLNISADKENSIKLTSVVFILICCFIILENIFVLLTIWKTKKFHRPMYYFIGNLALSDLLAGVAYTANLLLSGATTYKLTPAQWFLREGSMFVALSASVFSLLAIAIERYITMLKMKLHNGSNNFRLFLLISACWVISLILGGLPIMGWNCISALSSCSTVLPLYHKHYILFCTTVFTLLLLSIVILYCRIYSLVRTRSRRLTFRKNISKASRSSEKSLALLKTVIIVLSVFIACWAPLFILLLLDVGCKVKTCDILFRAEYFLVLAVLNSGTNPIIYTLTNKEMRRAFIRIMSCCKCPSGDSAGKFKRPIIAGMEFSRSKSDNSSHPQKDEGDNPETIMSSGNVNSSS

For test [2], the target named is T1, human sphingosine-1-phosphate receptor 1 (S1P1). The experiment in a line: β-Arrestin2 recruitment assay (PathHunter), S1P1 CHO-K1 cells. Type of test: cell-based. Particulars: for Emax: efficacy normalized to maximum efficacy of fingolimod, read-out: hS1P1 B-arrestin2 SPAN; for EC50: β-arrestin2 recruitment, read-out: hS1P1 B-arrestin2 pEC50 (converted). The method, boiled down:
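Agonist-driven β-arrestin2 recruitment measured by β-galactosidase complementation after 60 min compound exposure at 37 °C and 1 h detection at room temperature. Cells: stable CHO-K1 line expressing tagged human S1P1 with EA-β-arrestin2, plated the night before. Data expressed relative to fingolimod.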
Target sequence in this assay (P21453 whole entry): as above
Target sequence in this assay (P32121 whole entry partner): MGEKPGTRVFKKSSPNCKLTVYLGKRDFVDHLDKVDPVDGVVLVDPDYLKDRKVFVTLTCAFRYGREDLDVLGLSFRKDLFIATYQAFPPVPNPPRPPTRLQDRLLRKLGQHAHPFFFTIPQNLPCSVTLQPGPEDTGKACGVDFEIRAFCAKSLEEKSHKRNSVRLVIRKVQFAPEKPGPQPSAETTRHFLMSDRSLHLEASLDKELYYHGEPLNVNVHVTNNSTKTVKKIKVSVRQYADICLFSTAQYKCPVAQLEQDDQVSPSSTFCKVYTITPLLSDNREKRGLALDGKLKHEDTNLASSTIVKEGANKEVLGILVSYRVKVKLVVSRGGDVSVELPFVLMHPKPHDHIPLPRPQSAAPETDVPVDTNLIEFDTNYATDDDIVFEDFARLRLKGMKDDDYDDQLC
Background: Recruitment of arrestin is a read-out of receptor activation apart from second messengers.

Setting [3] is: inhibition of cAMP production, S1P1.
Where [4] appears, read: inhibition of cAMP production, potency.
The mark [5] stands for this setting: CHO-K1, β-arrestin2 recruitment.

A value given as a limit tells only on which side of the number the result lay.

For `CC(C)n1ccc2cc(-c3noc(-c4ccc(F)cc4)n3)ccc21` [Compound 400, 5-(4-fluorophenyl)-3-(1-isopropyl-1H-indol-5-yl)-1,2,4-oxadiazole], the Emax in test [1] and in test [2] (CHO-K1) was less than 75% each time. The EC50 in test [1] (setting [3]) was more than 0.316 µM; in test [2] (S1P1), more than 10 µM.
In the case of `Brc1ccccc1-c1nc(-c2ccc3c(c2)nnn3Cc2ccncc2)no1` [Compound 48, 5-(2-bromophenyl)-3-(1-(pyridin-4-ylmethyl)-1H-benzo[d][1,2,3]triazol-5-yl)-1,2,4-oxadiazole], the Emax in test [1] (inhibition of cAMP production) and in test [2] (setting [5]) was less than 75% each time. Besides, the EC50 was more than 0.316 µM in test [1] (setting [4]) and more than 10 µM in test [2] (potency).
`CCC1(CC)CC(=O)c2cc(-c3nc(-c4cncnc4)no3)ccc2O1` [Compound 620, 2,2-diethyl-6-(3-(pyrimidin-5-yl)-1,2,4-oxadiazol-5-yl)chroman-4-one]: the Emax in test [1] was less than 75%; in test [2] (CHO-K1) it was more than 75%. Besides, the figures for the EC50 in test [1] (setting [3]) and in test [2] (S1P1) were less than 0.316 µM and less than 10 µM, respectively.
Taken in the same sequence, the figures for `Cc1ccccc1-c1nc(-c2ccc3c(ccn3C(C)C)c2)no1` [Compound 389, 3-(1-isopropyl-1H-indol-5-yl)-5-(o-tolyl)-1,2,4-oxadiazole] were more than 75%, more than 75%, less than 0.316 µM and less than 10 µM.
As to `Cc1cnc(-c2noc(-c3ccc4c(c3)nnn4C(C)C)n2)cn1` [Compound 157, 5-[3-(5-methylpyrazin-2-yl)-1,2,4-oxadiazol-5-yl]-1-(propan-2-yl)-1H-1,2,3-benzotriazole], the Emax in test [1] (inhibition of cAMP production) and in test [2] (setting [5]) was less than 75% in each case. The EC50 in test [1] (setting [4]) is more than 0.316 µM; in test [2] (potency) it was more than 10 µM.
Take `CCC1(CC)CC(=O)c2cc(-c3nc(-c4ccc5c(c4)nnn5C(C)C)no3)ccc2O1` [Compound 305, 2,2-diethyl-6-(3-(1-isopropyl-1H-benzo[d][1,2,3]triazol-5-yl)-1,2,4-oxadiazol-5-yl)chroman-4-one]: the results for the Emax in test [1] (inhibition of cAMP production) and in test [2] (setting [5]) were more than 75% and less than 75%, respectively. For the same compound, the EC50 in test [1] (setting [4]) is more than 0.316 µM; in test [2] (potency) it was more than 10 µM.
As to `CCC1(CC)CC(=O)c2cc(-c3ncc(-c4ccccn4)cn3)ccc2O1` [Compound 530, 2,2-diethyl-6-(5-(pyridin-2-yl)pyrimidin-2-yl)chroman-4-one], the Emax in test [1] and in test [2] (CHO-K1) was more than 75% in each case. In addition, the EC50 is more than 0.316 µM in test [1] (setting [3]) and more than 10 µM in test [2] (S1P1).
In the case of `CCC1(CC)CC(=O)c2cc(-c3nc(-c4cccs4)no3)ccc2N1` [Compound 591, 2,2-diethyl-6-(3-(thiophen-2-yl)-1,2,4-oxadiazol-5-yl)-2,3-dihydroquinolin-4(1H)-one], the figures for the Emax in test [1] and in test [2] (CHO-K1) were less than 75% and more than 75%, respectively. Besides, the EC50 is less than 0.316 µM in test [1] (setting [3]) and less than 10 µM in test [2] (S1P1).
As for `Cc1ccccc1-c1cc(-c2ccc3c(c2)nnn3C(C)C)c[nH]1` [Compound 601, 5-[5-(2-methylphenyl)-1H-pyrrol-3-yl]-1-(propan-2-yl)-1H-1,2,3-benzotriazole], the results for the Emax in test [1] and in test [2] (CHO-K1) were more than 75% and less than 75%, respectively. Also, the results for the EC50 in test [1] (setting [3]) and in test [2] (S1P1) were more than 0.316 µM and less than 10 µM, respectively.
Regarding `CC(C)Oc1ccccc1-c1noc(-c2ccc3c(c2)nnn3C(C)C)n1` [Compound 62, 3-(2-isopropoxyphenyl)-5-(1-isopropyl-1H-benzo[d][1,2,3]triazol-5-yl)-1,2,4-oxadiazole], the Emax in test [1] (inhibition of cAMP production) and in test [2] (setting [5]) was more than 75% in each case. Moreover, the EC50 in test [1] (setting [4]) is more than 0.316 µM; in test [2] (potency) it was more than 10 µM.
Take `CCC1(CC)CC(=O)c2cc(-c3nc(-c4cnccn4)no3)ccc2O1` [Compound 617, 2,2-diethyl-6-(3-(pyrazin-2-yl)-1,2,4-oxadiazol-5-yl)chroman-4-one]: the Emax was less than 75% in test [1] and more than 75% in test [2] (CHO-K1). Further, the EC50 is more than 0.316 µM in test [1] (setting [3]) and more than 10 µM in test [2] (S1P1).
For the compound `CCCn1nnc2cc(-c3nc(-c4ccccc4)no3)ccc21` [Compound 160, 5-(3-phenyl-1,2,4-oxadiazol-5-yl)-1-propyl-1H-1,2,3-benzotriazole], the Emax in test [1] (inhibition of cAMP production) and in test [2] (setting [5]) was less than 75% in each case. Also, the EC50 in test [1] (setting [4]) is more than 0.316 µM; in test [2] (potency), more than 10 µM.
For `CCC1(CC)CC(=O)c2cc(-c3nc(-c4cnccc4C)no3)ccc2O1` [Compound 549, 2,2-diethyl-6-(3-(4-methylpyridin-3-yl)-1,2,4-oxadiazol-5-yl)chroman-4-one], the Emax in test [1] and in test [2] (CHO-K1) was more than 75% in each case. The EC50 in test [1] (setting [3]) is less than 0.316 µM; in test [2] (S1P1), less than 10 µM.
With `Cc1nc(-c2ccccc2)oc1-c1cnc2c(c1)CC(=O)N2` [Compound 360, 5-(4-methyl-2-phenyl-1,3-oxazol-5-yl)-1H,2H,3H-pyrrolo[2,3-b]pyridin-2-one], the Emax in test [1] (inhibition of cAMP production) and in test [2] (setting [5]) was less than 75% in each case. Besides, the EC50 in test [1] (setting [4]) is more than 0.316 µM; in test [2] (potency) it was more than 10 µM.
Consider `COc1ccc(-c2nc(-c3ccc4c(c3)nnn4CC(C)(C)CO)no2)c(C)c1` [Compound 523, 3-(5-(5-(4-methoxy-2-methylphenyl)-1,2,4-oxadiazol-3-yl)-1H-benzo[d][1,2,3]triazol-1-yl)-2,2-dimethyl-propan-1-ol], for which the Emax in test [1] and in test [2] (CHO-K1) was more than 75% in each case. The EC50 is more than 0.316 µM in test [1] (setting [3]) and more than 10 µM in test [2] (S1P1).
Consider `Cc1ccccc1-c1nsc(-c2ccc3c(ccn3C(C)C)c2)n1` [Compound 381, 5-[3-(2-methylphenyl)-1,2,4-thiadiazol-5-yl]-1-(propan-2-yl)-1H-indole], for which the Emax in test [1] and in test [2] (CHO-K1) was less than 75% in each case. The EC50 in test [1] (setting [3]) was more than 0.316 µM; in test [2] (S1P1), less than 10 µM.
As to `CC(C)n1nnc2cc(-c3ncc(-c4ccccc4F)s3)ccc21` [Compound 63, 5-(2-fluorophenyl)-2-(1-isopropyl-1H-benzo[d][1,2,3]triazol-5-yl)thiazole], the Emax in test [1] (inhibition of cAMP production) and in test [2] (setting [5]) was less than 75% throughout. Moreover, the EC50 in test [1] (setting [4]) is less than 0.316 µM; in test [2] (potency) it was more than 10 µM.
With `CC(C)Oc1ccc(-c2nc(-c3ccc4c(c3)nnn4C(C)C)no2)cc1C(F)(F)F` [Compound 246, 5-(4-isopropoxy-3-(trifluoromethyl)phenyl)-3-(1-isopropyl-1H-benzo[d][1,2,3]triazol-5-yl)-1,2,4-oxadiazole], the Emax in test [1] (inhibition of cAMP production) and in test [2] (setting [5]) was more than 75% throughout. For the same compound, the values for the EC50 in test [1] (setting [4]) and in test [2] (potency) were less than 0.316 µM and less than 10 µM, respectively.
On to `CC1(C)Oc2ccc(-c3nc(-c4cccnc4)no3)cc2C1=O` [Compound 481, 2,2-dimethyl-5-[3-(pyridin-3-yl)-1,2,4-oxadiazol-5-yl]-2,3-dihydro-1-benzofuran-3-one], for which the values for the Emax in test [1] and in test [2] (CHO-K1) were more than 75% and less than 75%, respectively. Further, the values for the EC50 in test [1] (setting [3]) and in test [2] (S1P1) were more than 0.316 µM and less than 10 µM, respectively.
In the case of `COc1cccc(-c2nc(-c3ccc4[nH]ccc4c3)ns2)c1` [Compound 364, 5-[5-(3-methoxyphenyl)-1,2,4-thiadiazol-3-yl]-1H-indole], the figures for the Emax in test [1] (inhibition of cAMP production) and in test [2] (setting [5]) were more than 75% and less than 75%, respectively. Further, the figures for the EC50 in test [1] (setting [4]) and in test [2] (potency) were more than 0.316 µM and more than 10 µM, respectively.

For the origin of these results see US20230114241A1, “METHODS OF TREATING EPILEPSY USING THE SAME” (Trevena, Inc., priority 2019, published 2023).
